Measurements reported in patent US5571799A, “(2'-5') oligoadenylate analogues useful as inhibitors of host-v5.-graft response” (Basco, Ltd., priority 1994, dated 1996).
“Also recorded” adds a separate entry of the source. Marks after values point to notes of the source that are not given here.

Legend:
[1] = test system: α-interferon and γ-interferon; experiment: Immune system of monkeys: α- and γ-interferon; format: in vivo, Macaque Rh. monkeys
Description: (§1) Immunosuppressive activity of the prototype 2'-5'A3 and two analogues (2'-5')A2 Ar-epoxy and (2'-5')A2 A^l-epoxy were investigated in monkeys. The experiments were performed on 4 year-old Macaque Rh. monkeys. The levels of the principal subpopulations of T-lymphocytes, IgA, IgG, IgM and the amount of α- and γ-interferon and interleukin II after administration (2'-5')olygoadenylate and its analogies at the concentration of 50 and 25 μg/kg of the body weight was investigated.
(§2) Serum levels of IgG, IgA, IgM were determined by radial immunodiffusion using antisera against human immunoglobulin A, M, G. The amount of interferon and interleukine-II were determined by the method of Lopez-Botet M. et al., 1982.

IgG, IgA, IgM = experiment: Immune system of monkeys: serum immunoglobulins by radial immunodiffusion; format: in vivo, Macaque Rh. monkeys
Description: as §1
IMMUNOGLOBULIN DETERMINATION
as §2

[2] = test system: T-helper and T-killer cells; experiment: T-helper and T-killer cells in monkeys after kidney transplantation; format: in vivo, Macaque Rh. monkeys; conditions: 50 μg/kg IV every 48 hours; first two post-surgical weeks
Description: The experiments were performed on 4 year-old Macaque Rh. monkeys. Each cohort consisted of 3 animals. […] The results of the experiments were evaluated clinically: by the presence or absence of urination from the ureterocutaneostoma.
During our experiments we have divided monkeys into two groups, three monkeys to each group. For the first group (2'-5')A2 Ar-epoxy was administered intravenously at concentration of 50 μg/kg two days before the operation and at the second, sixth, and twelfth day after the operation and then every sixth day. […] After transplantation kidney functions were restored within 10 hours.
The administration schedule of (2'-5')A2 Ar-epoxy was modified slightly for the second group of monkeys. The preparation was injected two days before the operation and every other day at a concentration of 50 μg/kg during the entire post-transplantation period. […] The number of T-helpers dropped correspondingly from 37% to 7%. […] During the entire postoperative period, this activity tendency continues.

lymphocytes = experiment: Lymphocyte blast-transformation reaction in operated rabbits; format: in vivo, chinchilla rabbits
Description: Immunosuppression was performed by IV injection of (2'-5')A2 Ar-epoxy at a dose of 5 μg per 1.0 kg body weight at 0.1 ml of the physiologic solution daily until the conclusion of the experiment. During the first two weeks of the post-operative period, blood was taken for immunological analysis; BTR with PHA and Concanavalin A were tested.
Lymphocyte Blast-Transformation Reaction in Operated Rabbits

T-killers and T-helpers = experiment: Immunosuppressive activity in vivo in monkeys; set-up: species or system Macaque Rh. monkeys
Description: as §1, with “The” for “Immunosuppressive activity of the prototype 2'-5'A3 and two analogues (2'-5')A2 Ar-epoxy and (2'-5')A2 A^l-epoxy were investigated in monkeys. The”
FLOW CYTOFLUOROGRAFIC ANALYSIS OF LYMPHOCYTE SUBSETS
Blood samples (100 μl of whole blood) were placed into a 12×17 tube. To these cells 20 μl of purified monoclonal antibodies were added with specificity for human cytotoxic/suppressor cells anti-Leu-2a (CD8), human helper/inducer anti-Leu-3a (CD4) and FITC conjugated monoclonal antibodies with specificity for natural killer cells-anti-Leu11c (CD16) (Becton Dickinson, San Jose). After 30 minutes incubation on ice, the cells were washed once and 20 μl of goat-antimouse chain phycoerythrin (Sigma P1286) conjugate were added to the tube with anti-Leu-2a and anti-Leu-3a monoclonal antibodies.
After erythrocyte lysing with FACS lysing solution (Becton Dickinson, San Jose) the cells were analyzed on FACScan flow cytometer (Becton Dickinson, San Jose) with scatter gate set on lymphocyte fraction.

[3] = single IV 25 μg/kg, day 0 (baseline)
[4] = single IV 50 μg/kg, day 0 (baseline)

With “Adenylyl (2'-5')adenylyl (2'-5')-9-(2,3-anhydro-β-D-ribofuranosyl) adenine disodium salt [(2'-5')A2 Ar-epoxy]” the “effect on interferon, in words” value ([1]; monkeys, single IV, two weeks, disodium salt) was “stimulates the level of α-interferon and γ-interferon in blood lymphocytes for a period of two weeks; also recorded: the quantity of α-interferon in blood plasma tends to normalize; also recorded: does not suppress the production of γ-interferon”, the α-interferon of lymphocytes [1, 3] was 16 Units per 10,000 lymphocytes and the α-interferon of plasma [1, 3] was 8 Units per 10,000 lymphocytes. The γ-interferon of lymphocytes [1, 3] was 4 Units per 10,000 lymphocytes, the α-interferon of lymphocytes ([1]; single IV 25 μg/kg, day 1) was 32 Units per 10,000 lymphocytes and the α-interferon of plasma ([1]; single IV 25 μg/kg, day 1) was 8 Units per 10,000 lymphocytes. For the same substance, the γ-interferon of lymphocytes ([1]; single IV 25 μg/kg, day 1) was 16 Units per 10,000 lymphocytes, the α-interferon of lymphocytes ([1]; single IV 25 μg/kg, day 2) was 32 Units per 10,000 lymphocytes and the α-interferon of plasma ([1]; single IV 25 μg/kg, day 2) was 4 Units per 10,000 lymphocytes. The γ-interferon of lymphocytes ([1]; single IV 25 μg/kg, day 2) was 16 Units per 10,000 lymphocytes, the α-interferon of lymphocytes ([1]; single IV 25 μg/kg, day 12) was 32 Units per 10,000 lymphocytes and the α-interferon of plasma ([1]; single IV 25 μg/kg, day 12) was 4 Units per 10,000 lymphocytes. For the same substance, the γ-interferon of lymphocytes ([1]; single IV 25 μg/kg, day 12) was 16 Units per 10,000 lymphocytes, the α-interferon of lymphocytes ([1]; single IV 25 μg/kg, day 21) was 16 Units per 10,000 lymphocytes and the α-interferon of plasma ([1]; single IV 25 μg/kg, day 21) was 4 Units per 10,000 lymphocytes. The γ-interferon of lymphocytes ([1]; single IV 25 μg/kg, day 21) was 8 Units per 10,000 lymphocytes, the α-interferon of lymphocytes [1, 4] was 32 Units per 10,000 lymphocytes and the α-interferon of plasma [1, 4] was 16 Units per 10,000 lymphocytes. The γ-interferon of lymphocytes [1, 4] was 4 Units per 10,000 lymphocytes, the α-interferon of lymphocytes ([1]; single IV 50 μg/kg, day 1) was 32 Units per 10,000 lymphocytes and the α-interferon of plasma ([1]; single IV 50 μg/kg, day 1) was 32 Units per 10,000 lymphocytes. The γ-interferon of lymphocytes ([1]; single IV 50 μg/kg, day 1) was 8 Units per 10,000 lymphocytes, the α-interferon of lymphocytes ([1]; single IV 50 μg/kg, day 2) was 64 Units per 10,000 lymphocytes and the α-interferon of plasma ([1]; single IV 50 μg/kg, day 2) was 4 Units per 10,000 lymphocytes. The γ-interferon of lymphocytes ([1]; single IV 50 μg/kg, day 2) was 32 Units per 10,000 lymphocytes, the α-interferon of lymphocytes ([1]; single IV 50 μg/kg, day 12) was 64 Units per 10,000 lymphocytes and the α-interferon of plasma ([1]; single IV 50 μg/kg, day 12) was 4 Units per 10,000 lymphocytes. For the same substance, the γ-interferon of lymphocytes ([1]; single IV 50 μg/kg, day 12) was 32 Units per 10,000 lymphocytes, the α-interferon of lymphocytes ([1]; single IV 50 μg/kg, day 21) was 32 Units per 10,000 lymphocytes and the α-interferon of plasma ([1]; single IV 50 μg/kg, day 21) was 4 Units per 10,000 lymphocytes. The γ-interferon of lymphocytes ([1]; single IV 50 μg/kg, day 21) was 8 Units per 10,000 lymphocytes, the IgA (IgG, IgA, IgM; [3]) was 2.8 g/L and the IgG (IgG, IgA, IgM; [3]) was 7.5 g/L. It also gave an IgM (IgG, IgA, IgM; [3]) of 0.5 g/L, an IgA (IgG, IgA, IgM; single IV 25 μg/kg, day 1) of 2.0 g/L and an IgG (IgG, IgA, IgM; single IV 25 μg/kg, day 1) of 7.4 g/L. It also gave an IgM (IgG, IgA, IgM; single IV 25 μg/kg, day 1) of 0.6 g/L, an IgA (IgG, IgA, IgM; single IV 25 μg/kg, day 2) of 1.1 g/L and an IgG (IgG, IgA, IgM; single IV 25 μg/kg, day 2) of 5.2 g/L. For the same substance, the IgM (IgG, IgA, IgM; single IV 25 μg/kg, day 2) was 1.0 g/L, the IgA (IgG, IgA, IgM; single IV 25 μg/kg, day 8) was 0.53 g/L and the IgG (IgG, IgA, IgM; single IV 25 μg/kg, day 8) was 14.5 g/L. It also gave an IgM (IgG, IgA, IgM; single IV 25 μg/kg, day 8) of 1.41 g/L, an IgA (IgG, IgA, IgM; single IV 25 μg/kg, day 21) of 0.38 g/L and an IgG (IgG, IgA, IgM; single IV 25 μg/kg, day 21) of 14.48 g/L. The IgM (IgG, IgA, IgM; single IV 25 μg/kg, day 21) was 1.2 g/L, the IgA (IgG, IgA, IgM; [4]) was 2.8 g/L and the IgG (IgG, IgA, IgM; [4]) was 9.6 g/L. For the same substance, the IgM (IgG, IgA, IgM; [4]) was 0.6 g/L, the IgA (IgG, IgA, IgM; single IV 50 μg/kg, day 1) was 2.7 g/L and the IgG (IgG, IgA, IgM; single IV 50 μg/kg, day 1) was 7.8 g/L. It also gave an IgM (IgG, IgA, IgM; single IV 50 μg/kg, day 1) of 0.5 g/L, an IgA (IgG, IgA, IgM; single IV 50 μg/kg, day 2) of 0.8 g/L and an IgG (IgG, IgA, IgM; single IV 50 μg/kg, day 2) of 15.0 g/L. The IgM (IgG, IgA, IgM; single IV 50 μg/kg, day 2) was 1.1 g/L, the IgA (IgG, IgA, IgM; single IV 50 μg/kg, day 8) was 0.9 g/L and the IgG (IgG, IgA, IgM; single IV 50 μg/kg, day 8) was 14.8 g/L. For the same substance, the IgM (IgG, IgA, IgM; single IV 50 μg/kg, day 8) was 0.9 g/L, the IgA (IgG, IgA, IgM; single IV 50 μg/kg, day 21) was 0.38 g/L and the IgG (IgG, IgA, IgM; single IV 50 μg/kg, day 21) was 13.2 g/L. For the same substance, the IgM (IgG, IgA, IgM; single IV 50 μg/kg, day 21) was 0.78 g/L, the “retained level of T-helper and T-killer cells relative to normal value” [2] was 30% and the “DNA synthesis by [^3 H]-thymidine incorporated” value (from here on “DNA synthesis”) (lymphocytes; Con A, Group 1, 2 weeks post-op., pre-op. 12.6) was 1.6 cpm(×10^3). For the same substance, the “DNA synthesis” value (lymphocytes; Con A, Group 1, 48 h. post-op., pre-op. 12.6) was 1.6 cpm(×10^3), the “DNA synthesis” value (lymphocytes; Con A, Group 2, 2 weeks post-op., pre-op. 11.0) was 5.0 cpm(×10^3) and the “DNA synthesis” value (lymphocytes; Con A, Group 2, 48 h. post-op., pre-op. 11.0) was 4.4 cpm(×10^3). The “DNA synthesis” value (lymphocytes; PHA 10, Group 1, 2 weeks post-op., pre-op. 6.0) was 1.5 cpm(×10^3), the “DNA synthesis” value (lymphocytes; PHA 10, Group 1, 48 h. post-op., pre-op. 6.0) was 0.9 cpm(×10^3) and the “DNA synthesis” value (lymphocytes; PHA 10, Group 2, 2 weeks post-op., pre-op. 7.0) was 2.1 cpm(×10^3). For the same substance, the “DNA synthesis” value (lymphocytes; PHA 10, Group 2, 48 h. post-op., pre-op. 7.0) was 2.4 cpm(×10^3), the “DNA synthesis” value (lymphocytes; PHA 20, Group 1, 2 weeks post-op., pre-op. 2.1) was 1.6 cpm(×10^3) and the “DNA synthesis” value (lymphocytes; PHA 20, Group 1, 48 h. post-op., pre-op. 2.1) was 1.2 cpm(×10^3). The “DNA synthesis” value (lymphocytes; PHA 20, Group 2, 48 h. post-op., pre-op. 1.4) was 5.5 cpm(×10^3), the “DNA synthesis” value (lymphocytes; Spontaneous, Group 1, 48 h. post-op., pre-op. 0.648) was 0.306 cpm(×10^3) and the “DNA synthesis” value (lymphocytes; Spontaneous, Group 2, 48 h. post-op., pre-op. 0.597) was 0.274 cpm(×10^3). For the same substance, the “suppression of lymphocyte blast-transformation stimulated with Con A” value (lymphocytes; post-transplanted rabbits, IV 5 μg/kg) was about 10 fold, the “lymphocyte blast-transformation reaction, in words” value (lymphocytes; two weeks following the operation) was “inhibition of the lymphocyte blast-transformation reaction” and the “immunosuppressive activity, in words” value (T-killers and T-helpers; monkeys, IV, disodium salt) was “suppresses significantly the number of T-lymphocytes in blood after only 48 hours; also recorded: strong immunosuppressive activity specifically against T-killers and T-helpers; also recorded: suppressed more actively the number of T-killer and T-helpers”. The “increase of the quantity of the subpopulation of T-helpers and T-killers” value (T-killers and T-helpers; single IV injection (Table 10 experiment, 500 μg/kg)) was “about 50%” and the “suppression of the number of T-killers and T-helpers” value (T-killers and T-helpers; single IV injection, 48 hours, monkeys) was 50%.
